Measured values as given in patent US8569336B2, “Compounds for the treatment of inflammatory disorders” (priority 2008, dated 2013).
Where two headings read alike, the source gives them in different places.

Tests used:
[1] = biological target: T1, purified catalytic domain of recombinant human TACE (rhTACEc) (Homo sapiens, UniProt P78536, N452Q/S266A); experiment: TACE kinetic assay: cleavage of internally quenched peptide substrate TNF-FRET 2 (Ki); type: biochemical; conditions: TNF-FRET 2 substrate
T1 construct: 6xHis (C); made in house; host or cells: baculovirus/Hi5 insect cells

[2] = system: TNF-α production from human whole blood; experiment: Inhibition of TNF-α production from human whole blood (hWBA), LPS stimulated, ELISA; type: cell-based; conditions: TNF-α by ELISA, read-out: hWBA (IC50)
[3] = Homo sapiens, 3.5 h, human whole blood diluted 1:1, LPS stimulated, 3.5 h

T1 sequence (P78536 215-477 S266A/N452Q): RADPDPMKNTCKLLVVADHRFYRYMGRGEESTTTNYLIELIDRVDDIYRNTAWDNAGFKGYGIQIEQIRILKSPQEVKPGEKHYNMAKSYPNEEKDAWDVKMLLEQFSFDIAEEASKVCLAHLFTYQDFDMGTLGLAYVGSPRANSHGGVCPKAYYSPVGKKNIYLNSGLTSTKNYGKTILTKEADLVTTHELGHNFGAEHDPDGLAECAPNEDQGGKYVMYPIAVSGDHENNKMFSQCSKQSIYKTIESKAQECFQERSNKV

SMILES	Ki ([1]; read-out: Ki)	IC50 ([2]; Homo sapiens, LPS-stimulated human whole blood)	IC50 [2, 3]	IC50 ([2]; human whole blood diluted 1:1, LPS stimulated, 3.5 h)	Ki ([1]; Ki)
COc1ccc2c(c1)C(=O)N(C[C@@]1(c3cc4[nH]c(=O)ccc4o3)NC(=O)NC1=O)C2 [Compound 1946]	0.37 nM	542 nM			
COc1ccc2c(c1)C(=O)N(C[C@@]1(c3cc4nc(-c5c(C)n[nH]c5C)ccc4o3)NC(=O)NC1=O)C2 [Compound 2101]	0.14 nM		203 nM		
COc1ccc2c(c1)C(=O)N(C[C@@]1(c3cc4nc(-c5cc[nH]n5)ccc4o3)NC(=O)NC1=O)C2 [Compound 2103]	0.342 nM		375 nM		
COc1ccc2c(c1)C(=O)N(C[C@@]1(c3cc4nc(N5CCCC5)ccc4o3)NC(=O)NC1=O)C2 [Compound 2106]	0.422 nM		669 nM		
COc1ccc2c(c1)C(=O)N(C[C@@]1(c3cc4nc(N5CCC(OC)(OC)CC5)ccc4o3)NC(=O)NC1=O)C2 [Compound 2109]	0.75 nM		161 nM		
COc1ccc2c(c1)C(=O)N(C[C@@]1(c3cc4nc(Nc5c(C)cnn5C)ccc4o3)NC(=O)NC1=O)C2 [Compound 2111]	0.762 nM		1130 nM		
COc1ccc2c(c1)C(=O)N(C[C@@]1(c3cc4nc(Nc5nccs5)ccc4o3)NC(=O)NC1=O)C2 [Compound 2113]	0.62 nM		1400 nM		
COc1ccc2c(c1)C(=O)N(C[C@@]1(c3cc4nc(N5CCNC(=O)C5)ccc4o3)NC(=O)NC1=O)C2 [Compound 2114]	0.306 nM		193 nM		
COc1ccc2c(c1F)C(=O)N(C[C@@]1(c3cc4nc(-c5cn[nH]c5)ccc4o3)NC(=O)NC1=O)C2 [Compound 2121]	0.263 nM		102 nM		
COc1ccc2c(c1)C(=O)N(C[C@@]1(c3cc4nc(N5CCNCC5)ccc4o3)NC(=O)NC1=O)C2 [Compound 2126]	0.661 nM		194 nM		
COc1ccc2c(c1)C(=O)N(C[C@@]1(c3cc4nc(N5CCNC5=O)ccc4o3)NC(=O)NC1=O)C2 [Compound 2127]	0.435 nM		221 nM		
COc1ccc2c(c1)C(=O)N(C[C@@]1(c3cc4nc(Nc5ccccn5)ccc4o3)NC(=O)NC1=O)C2 [Compound 2128]	0.888 nM		1910 nM		
COc1ccc2c(c1)C(=O)N(C[C@@]1(c3cc4nc(Nc5c(C)noc5C)ccc4o3)NC(=O)NC1=O)C2 [Compound 2133]	0.635 nM		460 nM		
COc1ccc2c(c1)C(=O)N(C[C@@]1(c3cc4nc(N5CCCNC5=O)ccc4o3)NC(=O)NC1=O)C2 [Compound 2134]	0.467 nM		115 nM		
COc1ccc2c(c1)C(=O)N(C[C@@]1(c3cc4nc(Nc5ccncc5)ccc4o3)NC(=O)NC1=O)C2 [Compound 2136]	0.427 nM		247 nM		
COc1ccc2c(c1)C(=O)N(C[C@@]1(c3cc4nc(NC(=O)[C@@H](C)O)ccc4o3)NC(=O)NC1=O)C2 [Compound 2137]	0.36 nM		310 nM		
COc1ccc2c(c1)C(=O)N(C[C@@]1(c3cc4nc(N(C)c5ccncc5)ccc4o3)NC(=O)NC1=O)C2 [Compound 2138]	0.881 nM		524 nM		

SMILES	Ki ([1]; read-out: Ki)	IC50 ([2]; Homo sapiens, LPS-stimulated human whole blood)	IC50 [2, 3]	IC50 ([2]; human whole blood diluted 1:1, LPS stimulated, 3.5 h)	Ki ([1]; Ki)
CNC1CCN(c2ccc3oc([C@]4(CN5Cc6ccc(OC)cc6C5=O)NC(=O)NC4=O)cc3n2)CC1 [Compound 2139]	1.44 nM		388 nM		
COc1ccc2c(c1)C(=O)N(C[C@@]1(c3cc4nc(N5CCN(c6ccncc6)CC5)ccc4o3)NC(=O)NC1=O)C2 [Compound 2143]	0.976 nM		551 nM		
COc1ccc2c(c1)C(=O)N(C[C@@]1(c3cc4nc(Nc5nccc(O)n5)ccc4o3)NC(=O)NC1=O)C2 [Compound 2144]	0.194 nM		267 nM		
COc1ccc2c(c1)C(=O)N(C[C@@]1(c3cc4nc(-c5cc6ccccc6[nH]5)ccc4o3)NC(=O)NC1=O)C2 [Compound 2149]	0.286 nM		534 nM		
COc1ccc2c(c1)C(=O)N(C[C@@]1(c3cc4nc(-c5ccc6nccn6c5)ccc4o3)NC(=O)NC1=O)C2 [Compound 2150]	0.806 nM		828 nM		
COc1ccc2c(c1)C(=O)N(C[C@@]1(c3cc4nc(-c5cnc(N(C)C)nc5)ccc4o3)NC(=O)NC1=O)C2 [Compound 2152]	0.374 nM		675 nM		
COc1ccc2c(c1)C(=O)N(C[C@@]1(c3cc4nc(N5C(=O)CC[C@@H]5CO)ccc4o3)NC(=O)NC1=O)C2 [Compound 2157]	0.731 nM		382 nM		
COc1ccc2c(c1)C(=O)N(C[C@@]1(c3cc4nc(-c5cccs5)ccc4o3)NC(=O)NC1=O)C2 [Compound 2162]			1410 nM		0.125 nM
COc1ccc2c(c1)C(=O)N(C[C@@]1(c3cc4nc(-c5nnn[nH]5)ccc4o3)NC(=O)NC1=O)C2 [Compound 2167]			289 nM		0.351 nM
COc1ccc2c(c1)C(=O)N(C[C@@]1(c3cc4nc(N5CCC(O)CC5)ccc4o3)NC(=O)NC1=O)C2 [Compound 2172]	0.577 nM		210 nM		
COc1ccc2c(c1)C(=O)N(C[C@@]1(c3ccc(-c4ccc5c(c4)CN(CC4(C)NC(=O)NC4=O)C5=O)cc3)NC(=O)NC1=O)C2 (some centres unmarked) [Compound 2174]	1.88 nM		617 nM		
COc1ccc2c(c1)C(=O)N(C[C@@]1(c3ccc(-c4ccc(C5(CN)NC(=O)NC5=O)cc4)cc3)NC(=O)NC1=O)C2 (some centres unmarked) [Compound 2175]	2.08 nM		1760 nM		
COc1ccc2c(c1)C(=O)N(C[C@@]1(c3cc4cc(CN(C)C)ccc4o3)NC(=O)NC1=O)C2 [Compound 2176]	0.267 nM		1040 nM		
COc1ccc2c(c1)C(=O)N(C[C@@]1(c3cc4cc(CO)ccc4o3)NC(=O)NC1=O)C2 [Compound 2178]	0.546 nM		518 nM		
COc1ccc2c(c1)C(=O)N(C[C@@]1(c3cc4cc(CNCCN)ccc4o3)NC(=O)NC1=O)C2 [Compound 2179]	0.713 nM		376 nM		
COc1ccc2c(c1)C(=O)N(C[C@@]1(c3cc4cc(CNC5CCCCC5)ccc4o3)NC(=O)NC1=O)C2 [Compound 2180]	0.443 nM		617 nM		

Further lines, with some results ahead:

Ki ([1]; read-out: Ki)	IC50 ([2]; Homo sapiens, LPS-stimulated human whole blood)	IC50 [2, 3]	IC50 ([2]; human whole blood diluted 1:1, LPS stimulated, 3.5 h)	SMILES	Ki ([1]; Ki)
0.343 nM		1650 nM		COc1ccc2c(c1)C(=O)N(C[C@@]1(c3cc4cc(CNc5ccccn5)ccc4o3)NC(=O)NC1=O)C2 [Compound 2181]	
0.79 nM		532 nM		COc1ccc2c(c1)C(=O)N(C[C@@]1(c3cc4cc(CN)ccc4o3)NC(=O)NC1=O)C2 [Compound 2182]	
1.02 nM		526 nM		COc1ccc2c(c1)C(=O)N(C[C@@]1(c3cc4cc(CNCC5CCNCC5)ccc4o3)NC(=O)NC1=O)C2 [Compound 2183]	
0.355 nM		347 nM		COc1ccc2c(c1)C(=O)N(C[C@@]1(c3cc4cc(-c5nnc[nH]5)ccc4o3)NC(=O)NC1=O)C2 [Compound 2184]	
3.99 nM		1040 nM		CNCc1ccc2oc([C@]3(CN4Cc5ccc(OC)cc5C4=O)NC(=O)NC3=O)cc2c1 [Compound 2185]	
0.539 nM		345 nM		COc1ccc2c(c1)C(=O)N(C[C@@]1(c3cc4cc(CN5CCNCC5)ccc4o3)NC(=O)NC1=O)C2 [Compound 2186]	
0.989 nM		4030 nM		COc1ccc2c(c1)C(=O)N(C[C@@]1(c3cc4ccc(OC)cc4o3)NC(=O)NC1=O)C2 [Compound 2187]	
2.26 nM		2990 nM		O=C1NC(=O)[C@](CN2Cc3ccc(O)cc3C2=O)(c2cc3cnccc3o2)N1 [Compound 2188]	
0.491 nM		3310 nM		COc1ccc2c(c1)C(=O)N(C[C@@]1(c3cc4cc(Br)ccc4o3)NC(=O)NC1=O)C2 [Compound 2192]	
0.253 nM		170 nM		CCNc1nnc(-c2ccc3cc([C@]4(CN5Cc6ccc(OC)cc6C5=O)NC(=O)NC4=O)oc3c2)o1 [Compound 2193]	
0.741 nM		1170 nM		COc1ccc2c(c1)C(=O)N(C[C@@]1(c3cc4cc(-c5ccncc5)ccc4o3)NC(=O)NC1=O)C2 [Compound 2194]	
0.849 nM			2710 nM	COc1ccc2c(c1)C(=O)N(C[C@@]1(c3cc4cc(-c5ccc(N(C)C)nc5)ccc4o3)NC(=O)NC1=O)C2 [Compound 2197]	
0.637 nM		1890 nM		COc1ccc2c(c1)C(=O)N(C[C@@]1(c3cc4cc(-c5cnccc5OC)ccc4o3)NC(=O)NC1=O)C2 [Compound 2198]	
1.96 nM		7360 nM		COc1ccc2c(c1)C(=O)N(C[C@@]1(c3cc4cc(-c5cnccc5O)ccc4o3)NC(=O)NC1=O)C2 [Compound 2199]	
0.345 nM		294 nM		COc1ccc2c(c1)C(=O)N(C[C@@]1(c3cc4cc(-c5cn[nH]c5)ccc4o3)NC(=O)NC1=O)C2 [Compound 2201]	
0.488 nM		713 nM		COc1ccc2c(c1)C(=O)N(C[C@@]1(c3cc4cc(-c5ccc(N)nc5)ccc4o3)NC(=O)NC1=O)C2 [Compound 2202]	
0.659 nM		≥ 1000 nM		COc1ccc2c(c1)C(=O)N(C[C@@]1(c3ccc(-c4ccc(C5(C)NC(=O)NC5=O)cc4)cc3)NC(=O)NC1=O)C2 (some centres unmarked) [Compound 2205]	
0.82 nM		1780 nM		COc1ccc2c(c1)C(=O)N(C[C@@]1(c3ccc(-c4ccc(C5(C)NC(=O)NC5=O)nc4)cc3)NC(=O)NC1=O)C2 (some centres unmarked) [Compound 2206]	
0.249 nM		220 nM		CCC1(c2ccc3oc([C@]4(CN5Cc6ccc(OC)cc6C5=O)NC(=O)NC4=O)cc3c2)NC(=O)NC1=O (some centres unmarked) [Compound 2208]	
2.51 nM		542 nM		COc1ccc2c(c1)C(=O)N(C[C@@]1(c3cc4cc(CC(N)=O)ccc4o3)NC(=O)NC1=O)C2 [Compound 2209]	
0.216 nM		1550 nM		COc1ccc2c(c1)C(=O)N(C[C@@]1(c3cc4cc(C5(C)NC(=O)NC5=O)cc(C)c4o3)NC(=O)NC1=O)C2 (some centres unmarked) [Compound 2211]	
0.095 nM		2860 nM		COc1ccc2c(c1)C(=O)N(C[C@@]1(c3cc4cc(C5(C)CNC(=O)N5)cc(C)c4o3)NC(=O)NC1=O)C2 (some centres unmarked) [Compound 2212]	
